#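 All cell lines were grown in 96-well plates and treated with compound for 48 hours. GI50 = concentration required for 50% inhibition of growth.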 Calls of active or inactive are those of the source. Cut-off read from the data, not from the text of the source: active = GI50 up to about 1.1 µM and inactive = higher.
# Key:
# Test in all cases: DTP human tumour cell line panel, 48 h
# M14 = tested on: M14
# SK-MEL-5 = tested on: SK-MEL-5
# KM12 = tested on: KM12
# SK-OV-3 = tested on: SK-OV-3
# T47D = tested on: T47D
# SR = tested on: SR
# IGROV-1 = tested on: IGROV-1
# CAKI-1 = tested on: CAKI-1
# UACC-62 = tested on: UACC-62
# HL-60 = tested on: HL-60
# Hs-578T = tested on: Hs-578T
# 786-0 = tested on: 786-0
# NCI-H460 = tested on: NCI-H460
# UO-31 = tested on: UO-31
# TK-10 = tested on: TK-10
# OVCAR-8 = tested on: OVCAR-8
# MOLT-4 = tested on: MOLT-4
# SF-539 = tested on: SF-539
# HCC 2998 = tested on: HCC 2998
# SF-268 = tested on: SF-268
# CCRF-CEM = tested on: CCRF-CEM
# HOP-92 = tested on: HOP-92
# SF-295 = tested on: SF-295
# COLO 205 = tested on: COLO 205
# HCT-15 = tested on: HCT-15
# RXF 393 = tested on: RXF 393
# SW-620 = tested on: SW-620
# NCI-H522 = tested on: NCI-H522
# SNB-75 = tested on: SNB-75
# MCF7 = tested on: MCF7
# A549 = tested on: A549
# HCT-116 = tested on: HCT-116
# K562 = tested on: K562
# EKVX = tested on: EKVX
# RPMI-8226 = tested on: RPMI-8226
# NCI-H23 = tested on: NCI-H23
# HOP-62 = tested on: HOP-62
# LOX IMVI = tested on: LOX IMVI
# U-251 = tested on: U-251
# BT-549 = tested on: BT-549
# SN12C = tested on: SN12C
# UACC-257 = tested on: UACC-257
# OVCAR-5 = tested on: OVCAR-5
# NCI/ADR-RES = tested on: NCI/ADR-RES
# A498 = tested on: A498
# NCI-H226 = tested on: NCI-H226
# PC-3 = tested on: PC-3
# Malme-3M = tested on: Malme-3M
# OVCAR-3 = tested on: OVCAR-3
# MDA-N = tested on: MDA-N
# MDA-MB-231 = tested on: MDA-MB-231
# SNB-19 = tested on: SNB-19
# SK-MEL-2 = tested on: SK-MEL-2
# ACHN = tested on: ACHN
# MDA-MB-435 = tested on: MDA-MB-435
# OVCAR-4 = tested on: OVCAR-4
# HT-29 = tested on: HT-29
# SK-MEL-28 = tested on: SK-MEL-28
# DU-145 = tested on: DU-145
smiles,measurement,setting,value
O=C(O)c1cc2ccc3ccccc3c2oc1=O,GI50,M14,> 100 µM (inactive)
same,GI50,SK-MEL-5,> 100 µM (inactive)
same,GI50,KM12,> 100 µM (inactive)
same,GI50,SK-OV-3,> 100 µM (inactive)
same,GI50,T47D,> 100 µM (inactive)
same,GI50,SR,> 100 µM (inactive)
same,GI50,IGROV-1,> 100 µM (inactive)
same,GI50,CAKI-1,> 10 µM (inactive)
same,GI50,UACC-62,> 100 µM (inactive)
same,GI50,HL-60,> 100 µM (inactive)
same,GI50,Hs-578T,> 100 µM (inactive)
same,GI50,786-0,> 100 µM (inactive)
same,GI50,NCI-H460,> 100 µM (inactive)
same,GI50,UO-31,> 100 µM (inactive)
same,GI50,TK-10,> 100 µM (inactive)
same,GI50,OVCAR-8,> 100 µM (inactive)
same,GI50,MOLT-4,> 100 µM (inactive)
same,GI50,SF-539,> 100 µM (inactive)
same,GI50,HCC 2998,> 100 µM (inactive)
same,GI50,SF-268,> 100 µM (inactive)
same,GI50,CCRF-CEM,> 100 µM (inactive)
same,GI50,HOP-92,> 100 µM (inactive)
same,GI50,SF-295,> 100 µM (inactive)
same,GI50,COLO 205,> 100 µM (inactive)
same,GI50,HCT-15,> 100 µM
same,GI50,RXF 393,> 100 µM (inactive)
same,GI50,SW-620,> 100 µM (inactive)
same,GI50,NCI-H522,> 100 µM (inactive)
same,GI50,SNB-75,> 100 µM (inactive)
same,GI50,MCF7,> 100 µM (inactive)
same,GI50,A549,> 100 µM (inactive)
same,GI50,HCT-116,> 100 µM (inactive)
same,GI50,K562,> 100 µM (inactive)
same,GI50,EKVX,31.3 µM (inactive)
same,GI50,RPMI-8226,> 100 µM (inactive)
same,GI50,NCI-H23,> 100 µM (inactive)
same,GI50,HOP-62,> 100 µM (inactive)
same,GI50,LOX IMVI,> 100 µM (inactive)
same,GI50,U-251,> 100 µM (inactive)
same,GI50,BT-549,> 100 µM (inactive)
same,GI50,SN12C,> 100 µM (inactive)
same,GI50,UACC-257,> 100 µM (inactive)
same,GI50,OVCAR-5,> 100 µM (inactive)
same,GI50,NCI/ADR-RES,> 100 µM (inactive)
same,GI50,A498,54.2 µM (inactive)
same,GI50,NCI-H226,> 100 µM (inactive)
same,GI50,PC-3,> 100 µM (inactive)
same,GI50,Malme-3M,> 100 µM (inactive)
same,GI50,OVCAR-3,> 100 µM (inactive)
same,GI50,MDA-N,> 100 µM (inactive)
same,GI50,MDA-MB-231,> 100 µM (inactive)
same,GI50,SNB-19,> 100 µM (inactive)
same,GI50,SK-MEL-2,> 100 µM (inactive)
same,GI50,ACHN,> 100 µM (inactive)
same,GI50,MDA-MB-435,> 100 µM (inactive)
same,GI50,OVCAR-4,> 100 µM (inactive)
same,GI50,HT-29,> 100 µM (inactive)
same,GI50,SK-MEL-28,> 100 µM (inactive)
O=c1c2cc(S(=O)(=O)O)ccc2nc(COc2ccc(Oc3ccc(Cl)cc3Cl)cc2)n1-c1ccc(Cl)cc1Oc1c(Cl)cccc1Cl,GI50,M14,21.9 µM (inactive)
same,GI50,SK-MEL-5,17 µM (inactive)
same,GI50,KM12,35 µM (inactive)
same,GI50,SK-OV-3,25.2 µM (inactive)
same,GI50,T47D,46.1 µM (inactive)
same,GI50,SR,34 µM (inactive)
same,GI50,IGROV-1,33 µM (inactive)
same,GI50,CAKI-1,30.3 µM (inactive)
same,GI50,UACC-62,20.1 µM (inactive)
same,GI50,HL-60,47.1 µM (inactive)
same,GI50,Hs-578T,26.1 µM (inactive)
same,GI50,786-0,24.7 µM (inactive)
same,GI50,NCI-H460,19.5 µM (inactive)
same,GI50,UO-31,18.3 µM (inactive)
same,GI50,TK-10,29.4 µM (inactive)
same,GI50,OVCAR-8,23.3 µM (inactive)
same,GI50,MOLT-4,36 µM (inactive)
same,GI50,SF-539,16.5 µM (inactive)
same,GI50,DU-145,38 µM (inactive)
same,GI50,SF-268,15.3 µM (inactive)
same,GI50,CCRF-CEM,30.9 µM (inactive)
same,GI50,HOP-92,15.7 µM (inactive)
same,GI50,SF-295,21.8 µM (inactive)
same,GI50,COLO 205,17.5 µM (inactive)
same,GI50,HCT-15,21 µM
same,GI50,SW-620,23.3 µM (inactive)
same,GI50,NCI-H522,20.7 µM (inactive)
same,GI50,MCF7,21.2 µM (inactive)
same,GI50,A549,23.7 µM (inactive)
same,GI50,HCT-116,24.8 µM (inactive)
same,GI50,K562,43.2 µM (inactive)
same,GI50,EKVX,15.6 µM (inactive)
same,GI50,RPMI-8226,21.2 µM (inactive)
same,GI50,NCI-H23,24.2 µM (inactive)
same,GI50,HOP-62,33.7 µM (inactive)
same,GI50,LOX IMVI,17.5 µM (inactive)
same,GI50,U-251,18.3 µM (inactive)
same,GI50,BT-549,21.9 µM (inactive)
same,GI50,SN12C,30.1 µM (inactive)
same,GI50,UACC-257,30.5 µM (inactive)
same,GI50,OVCAR-5,23.6 µM (inactive)
same,GI50,NCI/ADR-RES,23.9 µM (inactive)
same,GI50,A498,25.3 µM (inactive)
same,GI50,NCI-H226,20.6 µM (inactive)
same,GI50,PC-3,36.4 µM (inactive)
same,GI50,Malme-3M,36.5 µM (inactive)
same,GI50,OVCAR-3,23.7 µM (inactive)
same,GI50,MDA-N,30.1 µM (inactive)
same,GI50,SNB-19,40.9 µM (inactive)
same,GI50,SK-MEL-2,18.6 µM (inactive)
same,GI50,ACHN,25.1 µM (inactive)
same,GI50,MDA-MB-435,25.6 µM (inactive)
same,GI50,OVCAR-4,29.4 µM (inactive)
same,GI50,HT-29,20 µM (inactive)
COC(=O)c1cc(NC(=O)c2cc(NC(=O)Cc3c[nH]c4ccccc34)cn2C)cn1C,GI50,M14,33 µM (inactive)
same,GI50,SK-MEL-5,16 µM (inactive)
same,GI50,KM12,24.3 µM (inactive)
same,GI50,SK-OV-3,40 µM (inactive)
same,GI50,T47D,> 100 µM (inactive)
same,GI50,CAKI-1,57.1 µM (inactive)
same,GI50,UACC-62,20.2 µM (inactive)
same,GI50,HL-60,34.6 µM (inactive)
same,GI50,786-0,56.9 µM (inactive)
same,GI50,NCI-H460,30.5 µM (inactive)
same,GI50,UO-31,23.5 µM (inactive)
same,GI50,TK-10,31.5 µM (inactive)
same,GI50,OVCAR-8,39.4 µM (inactive)
same,GI50,MOLT-4,30.7 µM (inactive)
same,GI50,SF-539,56.4 µM (inactive)
same,GI50,DU-145,> 100 µM (inactive)
same,GI50,SF-268,42.6 µM (inactive)
same,GI50,CCRF-CEM,32.7 µM (inactive)
same,GI50,SF-295,36.3 µM (inactive)
same,GI50,COLO 205,24.2 µM (inactive)
same,GI50,HCT-15,42.8 µM
same,GI50,RXF 393,31.3 µM (inactive)
same,GI50,SW-620,57.1 µM (inactive)
same,GI50,SNB-75,20.5 µM (inactive)
same,GI50,MCF7,36.5 µM (inactive)
same,GI50,A549,29.4 µM (inactive)
same,GI50,HCT-116,27.2 µM (inactive)
same,GI50,K562,44.4 µM (inactive)
same,GI50,EKVX,22.2 µM (inactive)
same,GI50,RPMI-8226,20.5 µM (inactive)
same,GI50,NCI-H23,24.3 µM (inactive)
same,GI50,HOP-62,> 100 µM (inactive)
same,GI50,LOX IMVI,32 µM (inactive)
same,GI50,BT-549,37.3 µM (inactive)
same,GI50,SN12C,33.4 µM (inactive)
same,GI50,OVCAR-5,39.3 µM (inactive)
same,GI50,NCI/ADR-RES,> 100 µM (inactive)
same,GI50,A498,24 µM (inactive)
same,GI50,NCI-H226,30.8 µM (inactive)
same,GI50,PC-3,19.1 µM (inactive)
same,GI50,Malme-3M,21.1 µM (inactive)
same,GI50,OVCAR-3,41.9 µM (inactive)
same,GI50,MDA-N,37.2 µM (inactive)
same,GI50,MDA-MB-231,25.9 µM (inactive)
same,GI50,SNB-19,21.8 µM (inactive)
same,GI50,SK-MEL-2,19.6 µM (inactive)
same,GI50,ACHN,35.7 µM (inactive)
same,GI50,MDA-MB-435,30.3 µM (inactive)
same,GI50,OVCAR-4,43.1 µM (inactive)
same,GI50,HT-29,22.2 µM (inactive)
same,GI50,SK-MEL-28,35.9 µM (inactive)

# — ChEMBL document CHEMBL1201862, “PubChem BioAssay data set” (2004)
